Legend:
[1] = tested on: ALOMY; assay: Pre-emergence action at 320 g/ha against ALOMY; type: in vivo, Alopecurus myosuroides; conditions: scored visually after about 3 weeks vs untreated controls (100% = plants have died)
Outline: (§1)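 Visual % scoring at about 3 weeks post-treatment against untreated pots (0% = like control, 100% = dead), greenhouse-grown. Compounds applied at 320 g/ha as aqueous WP/EC suspension or emulsion plus 0.5% additive, 600 l/ha water, onto covering soil of freshly sown pots before emergence.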

[2] = tested on: AVEFA; assay: Pre-emergence action at 320 g/ha against AVEFA; type: in vivo; conditions: visual scoring after about 3 weeks vs untreated controls
Outline: as §1

[3] = tested on: DIGSA; assay: Pre-emergence action at 320 g/ha against DIGSA; type: in vivo, Digitaria sanguinalis; conditions: visual scoring after about 3 weeks vs untreated controls
Outline: as §1

[4] = tested on: ECHGC; assay: Pre-emergence action at 320 g/ha against ECHGC; type: in vivo, Echinochloa crus-galli; conditions: visual scoring after about 3 weeks vs untreated controls
Outline: as §1

[5] = tested on: LOLRI; assay: Pre-emergence action at 320 g/ha against LOLRI; type: in vivo, Lolium rigidum; conditions: visual scoring after about 3 weeks vs untreated controls
Outline: as §1

[6] = tested on: SETVI; assay: Pre-emergence action at 320 g/ha against SETVI; type: in vivo, Setaria viridis; conditions: visual scoring after about 3 weeks vs untreated controls
Outline: as §1

[7] = tested on: AMARE; assay: Pre-emergence action at 320 g/ha against AMARE; type: in vivo, Amaranthus retroflexus; conditions: visual scoring after about 3 weeks vs untreated controls
Outline: as §1

[8] = tested on: MATIN; assay: Pre-emergence action at 320 g/ha against MATIN; type: in vivo, Tripleurospermum inodorum (Matricaria inodora); conditions: visual scoring after about 3 weeks vs untreated controls
Outline: as §1

[9] = tested on: PHBPU; assay: Pre-emergence action at 320 g/ha against PHBPU; type: in vivo; conditions: visual scoring after about 3 weeks vs untreated controls
Outline: as §1

[10] = tested on: POLCO; assay: Pre-emergence action at 320 g/ha against POLCO; type: in vivo, Fallopia convolvulus (Polygonum convolvulus); conditions: visual scoring after about 3 weeks vs untreated controls
Outline: as §1

[11] = tested on: STEME; assay: Pre-emergence action at 320 g/ha against STEME; type: in vivo, Stellaria media; conditions: greenhouse, scored visually after about 3 weeks vs untreated controls, 100% = plants have died, 0% = like control plants
Text: (§2) b) Seeds of monocotyledonous and dicotyledonous weed plants and crop plants are placed in plastic or organic planting pots and covered with soil. The compounds of the invention, formulated in the form of wettable powders (WP) or as emulsion concentrates (EC), are then applied onto the surface of the covering soil as aqueous suspension or emulsion with addition of 0.5% additive at a water application rate of 600 l/ha (converted). After the treatment, the pots are placed in a greenhouse and kept under good growth conditions for the trial plants. After about 3 weeks, the effect of the preparations is scored visually in comparison with untreated controls as percentages. For example, 100% activity=the plants have died, 0% activity=like control plants. Tables 13 to 26 below show the effects of selected compounds of the general formula (I) on various harmful plants and at an application rate corresponding to 320 g/ha, which were obtained by the experimental procedure mentioned above.

[12] = tested on: VERPE; assay: Pre-emergence action at 320 g/ha against VERPE; type: in vivo, Veronica persica; conditions: visual scoring after about 3 weeks vs untreated controls
Outline: as §1

[13] = tested on: VIOTR; assay: Pre-emergence action at 320 g/ha against VIOTR; type: in vivo, Viola tricolor; conditions: dosage 320 g/ha
Outline: as §1

[14] = tested on: HORMU; assay: Pre-emergence action at 320 g/ha against HORMU; type: in vivo, Hordeum murinum; conditions: greenhouse, scored visually after about 3 weeks vs untreated controls, 100% = plants have died, 0% = like control plants
Text: as §2

[15] = tested on: ALOMY; assay: Post-emergence action against ALOMY, 320 g/ha; type: in vivo, Alopecurus myosuroides; conditions: dosage 320 g/ha, visual rating about 3 weeks after treatment vs untreated controls (100% = plants died)
Outline: (§3)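 Sow in sandy loam → greenhouse growth 2–3 wk → spray at one-leaf stage (WP/EC, aqueous, +0.5% additive, 600 l/ha) → hold ~3 wk under optimum conditions → visual rating, 0–100% relative to untreated.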

[16] = tested on: DIGSA; assay: Post-emergence action at 320 g/ha against DIGSA; type: in vivo, Digitaria sanguinalis; conditions: dosage 320 g/ha, visual rating about 3 weeks after treatment vs untreated controls (100% = plants died)
Outline: as §3

[17] = tested on: ECHCG; assay: Post-emergence action at 320 g/ha against ECHCG; type: in vivo, Echinochloa crus-galli; conditions: dosage 320 g/ha, visual rating about 3 weeks after treatment vs untreated controls (100% = plants died)
Outline: as §3

[18] = tested on: ABUTH; assay: Post-emergence action at 320 g/ha against ABUTH; type: in vivo, Abutilon theophrasti; conditions: visual rating about 3 weeks after treatment vs untreated controls
Text: (§4) Accordingly, the compounds of the invention have good herbicidal action against a broad spectrum of weed grasses and broad-leaved weeds and are therefore suitable for controlling unwanted vegetation by the post-emergence method. • b) Seeds of monocotyledonous and dicotyledonous weeds and crop plants are placed in sandy loam in plastic or organic planting pots, covered with soil and cultivated in a greenhouse under controlled growth conditions. 2 to 3 weeks after sowing, the test plants are treated at the one-leaf stage. The compounds of the invention, formulated in the form of wettable powders (WP) or as emulsion concentrates (EC), are then sprayed onto the green parts of the plants as aqueous suspension or emulsion with addition of 0.5% additive at a water application rate of 600 l/ha (converted). After the test plants have been kept in the greenhouse under optimum growth conditions for about 3 weeks, the activity of the preparations is rated visually in comparison to untreated controls. For example, 100% activity=the plants have died, 0% activity=like control plants. Tables 39 to 49 below show the effects of selected compounds of the general formula (I) according to Tables 1 and 2 on various harmful plants and at an application rate corresponding to 320 g/ha, which were obtained by the experimental procedure mentioned above.

[19] = tested on: SETVI; assay: Post-emergence action at 320 g/ha against SETVI; type: in vivo, Setaria viridis; conditions: visual rating about 3 weeks after treatment vs untreated controls
Outline: as §3

[20] = tested on: PHBPU; assay: Post-emergence action at 320 g/ha against PHBPU; type: in vivo; conditions: visual rating about 3 weeks after treatment vs untreated controls
Text: as §4

[21] = tested on: POLCO; assay: Post-emergence action at 320 g/ha against POLCO; type: in vivo, Fallopia convolvulus (Polygonum convolvulus); conditions: visual rating about 3 weeks after treatment vs untreated controls
Outline: as §3

[22] = tested on: VIOTR; assay: Post-emergence action at 320 g/ha against VIOTR; type: in vivo, Viola tricolor; conditions: visual rating about 3 weeks after treatment vs untreated controls
Outline: as §3

[23] = tested on: AVEFA; assay: Post-emergence action at 320 g/ha against AVEFA; type: in vivo; conditions: visual rating about 3 weeks after treatment vs untreated controls
Outline: as §3

[24] = tested on: HORMU; assay: Post-emergence action at 320 g/ha against HORMU; type: in vivo, Hordeum murinum; conditions: visual rating about 3 weeks after treatment vs untreated controls
Text: as §4

SMILES: CC(C)OC(=O)COc1nn(-c2ccccc2F)c(-c2ccc(F)nc2)c1Br [VII-005]
- Pre-emergence action at 320 g/ha against ALOMY in % [1]: 100%
- Pre-emergence action against AVEFA in % [2]: 90%
- Pre-emergence action against DIGSA in % [3]: 100%
- Pre-emergence action against ECHGC in % [4]: 100%
- Pre-emergence action against LOLRI in % [5]: 100%
- Pre-emergence action against SETVI in % [6]: 100%
- Pre-emergence action against AMARE in % [7]: 100%
- Pre-emergence action against MATIN in % [8]: 100%
- Pre-emergence action against PHBPU in % [9]: 80%
- Pre-emergence action against POLCO in % [10]: 100%
- Pre-emergence action at 320 g/ha against STEME in % [11]: 90%
- Pre-emergence action against VERPE in % [12]: 100%
- Pre-emergence action against VIOTR in % [13]: 100%
- Pre-emergence action at 320 g/ha against HORMU in % [14]: 100%
- Post-emergence action against ALOMY [15]: 100%
- Post-emergence action at 320 g/ha against DIGSA in % [16]: 90%
- Post-emergence action at 320 g/ha against ECHCG in % [17]: 90%
- Post-emergence action against ABUTH in % [18]: 80%
- Post-emergence action against SETVI in % [19]: 80%
- Post-emergence action against PHBPU in % [20]: 90%
- Post-emergence action against POLCO in % [21]: 80%
- Post-emergence action against VIOTR in % [22]: 100%
- Post-emergence action against AVEFA in % [23]: 100%
- Post-emergence action against HORMU in % [24]: 90%

Source: patent US12180187B2, “1-phenyl-5-azinylpyrazolyl-3-oxyalkyl acids and their use for controlling unwanted plant growth” (BAYER AKTIENGESELLSCHAFT, priority 2019, dated 2024)
